Where a SMILES comes first, the peptide text is derived from it. The star is where a group is joined. Cbz = O=C(OCc1ccccc1)*
Legend:
Type in all cases: cell-based, human
BRCA1 = assay: Immunoblot of BRCA1 protein levels in breast carcinoma cells; conditions: for effect of pretreatment on E2-induced accumulation of BRCA1 protein: MCF7, steroid depleted, pretreatment before E2; for BRCA1 protein levels under proteasome inhibition: MCF7, steroid depleted medium, 0.5, 4 or 8 hours
Procedure: (§1) MCF7 cells were obtained from the American Type Culture Collection (#HTB-22). T47D cells were provided by Baylor College of Medicine. Both lines were normally maintained at 37° C. with 5% CO2 in DMEM with 1 mM L-glutamine (Gibco) supplemented with 10% Fetalclone serum (HyClone) and 1% non-essential amino acids (Gibco). For steroid depleted conditions (denoted as CSS), cells were cultured in phenol-free DMEM with 1 mM L-glutamine and 25 mM HEPES supplemented with 10% charcoal/dextran treated fetal bovine serum (Gemini Bioproducts). 17-β-estradiol and MG132 were obtained from Sigma-Aldrich. Cycloheximide, U0126, and p38 inhibitor were obtained from Calbiochem. ICI 182780 was obtained from Tocris Biosciences. LY294002 was obtained from Cell Signaling Technology.
(§2) Whole cell lysates were prepared by washing cells twice with PBS and then scraping into ice-cold PBS. Pelleted cells were resuspended in modified RIPA buffer (50 mM Tris base, 150 mM NaCl, 2 mM EDTA, 1% Triton X-100, 0.5% Na-deoxycholate, 0.1% SDS, 50 mM NaF, 5 mM Na3VO4, plus Roche protease inhibitor tablets). Lysates were incubated for 30 minutes on ice, clarified by centrifugation, and protein concentration determined by Bradford assay (BioRad). Where indicated, lysates harvested without phosphatase inhibitors were treated with λ-phosphatase (New England Biolabs) according to manufacturer's instructions. 100 μg of total protein was loaded per lane for Tris-glycine SDS-PAGE. Samples were transferred to PVDF membrane (Millipore) for 200 volt-hours at 50 V constant at 16° C. Membranes were blocked in 5% dry non-fat milk (Carnation) dissolved in either PBS or TBS (25 mM Tris pH 8.0, 135 mM NaCl, 2.5 mM KCl). Primary antibody incubations were performed overnight at 4° C. diluted in either 0.5% dry non-fat milk/PBS-Tween-20 0.1% or in 3% BSA (Santa Cruz Biotechnology)/TBS-Tween-20 0.1%. Antibody suppliers are: BRCA1 (Ab-4 and Ab-1, Calbiochem); BARD1 (Bethyl Laboratories); Lamin A/C, phospho-(Ser/Thr) Akt Substrate, phospho-5473 Akt, and Akt (Cell Signaling Technology); Cyclin D1 (Lab Vision Corp.); Tubulin (Chemicon). Secondary antibodies were obtained from Amersham/GE Healthcare. Densitometry was performed on 600 dpi TIFF scans of Western blot films with Quantity One software (BioRad). Density values for BRCA1 and BARD1 in each sample were normalized by the value of the corresponding Lamin A/C density as a control for loading.

BARD1 = assay: Immunoblot of BARD1 protein levels in breast carcinoma cells; conditions: for effect of pretreatment on E2-induced accumulation of BARD1 protein: MCF7, steroid depleted, pretreatment before E2; for BARD1 protein levels under proteasome inhibition: MCF7, steroid depleted medium, 0.5, 4 or 8 hours
Procedure: as §1, §2

Akt = assay: Immunoblot of phosphorylated Akt (pS473), Akt activation; conditions: MCF7, steroid depleted medium, after treatment
Procedure: as §1
Whole cell lysates were prepared by washing cells twice with PBS and then scraping into ice-cold PBS. Pelleted cells were resuspended in modified RIPA buffer (50 mM Tris base, 150 mM NaCl, 2 mM EDTA, 1% Triton X-100, 0.5% Na-deoxycholate, 0.1% SDS, 50 mM NaF, 5 mM Na3VO4, plus Roche protease inhibitor tablets). Lysates were incubated for 30 minutes on ice, clarified by centrifugation, and protein concentration determined by Bradford assay (BioRad). […] Densitometry was performed on 600 dpi TIFF scans of Western blot films with Quantity One software (BioRad). […]

SMILES | effect of pretreatment on E2-induced accumulation of BRCA1 protein (BRCA1) | effect of pretreatment on E2-induced accumulation of BARD1 protein (BARD1) | BRCA1 protein levels under proteasome inhibition (BRCA1) | BARD1 protein levels under proteasome inhibition (BARD1) | Akt activation (phosphorylated Akt pS473) (Akt)
N#CC(=C(/N)Sc1ccccc1N)/C(C#N)=C(/N)Sc1ccccc1N [MEK 1/2] | no effect | – | – | – | –
C[C@]12CC[C@@H]3c4ccc(O)cc4C[C@@H](CCCCCCCCC[S+]([O-])CCCC(F)(F)C(F)(F)F)[C@H]3[C@@H]1CC[C@@H]2O (some centres unmarked) [ICI 182780] | abolished | abolished | – | – | –
CC(C)C[C@@H](C=O)NC(=O)[C@H](CC(C)C)NC(=O)[C@H](CC(C)C)NC(=O)OCc1ccccc1 [MG132] (Cbz-Leu-Leu-Leu-aldehyde) | – | – | accumulation | accumulation | dramatic activation
CC(C)C[C@H](NC(=O)[C@H](Cc1ccccc1)NC(=O)c1cnccn1)B(O)O [bortezomib] | – | – | rapidly increased | rapidly increased | only minor activation
C[C@@H]1C[C@@H]([C@H](O)CC2CC(=O)NC(=O)C2)C(=O)[C@@H](C)C1 [cycloheximide, Cycloheximide] | did not prevent | did not prevent | – | – | –

Source: patent US20120040896A1, “COMPOSITIONS, METHODS AND USES FOR MODULATION OF BRCA 1” (THE REGENTS OF THE UNIVERSITY OF COLORADO, priority 2008, published 2012)
